Structures can show the parent of a compound that is named as a salt.
What was measured:
Type in all cases: cell-based
sonic hedgehog pathway [1] = test: Human hedgehog reporter assay Daoy-GliLuc (DGL); conditions: Daoy human medulloblastoma cells, Gli-luciferase reporter; read-out: Daoy Avg. EC50
Excerpt: (§1) Mouse (TM3: mouse Leydig cells; S12: mouse embryonic mesenchymal cells) and human (Daoy: human medulloblastoma cell; HepM: human embryonic palatal mesenchymal cell) cell lines are used to screen small molecules for their ability to modulate the activity of the sonic hedgehog pathway (Table 1, Table 2, and Table 3). Stable hedgehog pathway reporter cell lines are established by specific antibiotic selection following transfection of a reporter plasmid containing a luciferase gene located directly downstream from the gli promoter. Consequently, any observable changes in cellular luciferase activity may be attributed to changes in sonic hedgehog pathway activity in mouse and human cells, respectively, since gli is the major by-product of this pathway. To calculate activity, we generate an eleven point dose curve for each compound using 1:3 dilutions in 96 well assay plates. Each plate tested also contains low and high control to establish maximal pathway activation so to establish/compare a percentage activation of each tested compound (AMAX) on respective plates. Also we calculate EC50 values, or a concentration where the pathway will be exactly 50% activated, for each tested compound to determine potency. In these cell lines, compounds that register >20% AMAX values are considered active.
(§2) Stable hedgehog pathway reporter cell lines are established following specific antibiotic selection following transfection of a reporter plasmid In short, typically cells are plated in MicroTiter-plates at 10,000-20,000 cells per well, in growth media (containing 10%-20% FBS). After 48-72 hrs (HGL and DGL respectively) the media in the assay plates is switched to low-serum containing media (0.5% FBS). At that time compounds are added (at 1-5 μM) to the assay plates, in the presence or absence of hedgehog protein (octyl-modified version; 1-5 ng/ml). After another 24 hrs of incubation, the media from the assay plates is discarded and replaced with luciferase assay-mix. Subsequently, plates are incubated at RT for ˜15-30 mins and then read in a luminometer. [note: addition of the Hedgehog protein, although not critical, will sensitize the assay allowing the identification of weak actives].

sonic hedgehog pathway [2] = test: Human hedgehog reporter assay HEPM-GliLuc (HGL); conditions: HepM human embryonic palatal mesenchymal cells, Gli-luciferase reporter
Excerpt: as §1, §2

sonic hedgehog pathway [3] = test: Hedgehog pathway Gli-luciferase reporter assay, TM3 cells; conditions: TM3 mouse Leydig cells
Excerpt: as §1, §2

EC50 (sonic hedgehog pathway [1]) [nM]	EC50 (sonic hedgehog pathway [3]) [nM]	SMILES	EC50 (sonic hedgehog pathway [2]) [nM]
< 50	50 to 250	CN[C@H]1CC[C@@H](N(Cc2cc(-c3cncnc3)ccc2OC)C(=O)c2sc3ccccc3c2Cl)CC1 [324 (R20)]	50 to 250
< 50	50 to 250	CN[C@H]1CC[C@@H](N(Cc2cc(-c3cnccn3)ccc2OC)C(=O)c2sc3ccccc3c2Cl)CC1 [330 (R22)]	50 to 250
< 50	< 50	CN[C@H]1CC[C@@H](N(Cc2cc(-c3cncnc3)ccc2OC)C(=O)c2sc3c(F)ccc(F)c3c2Cl)CC1 [343 (R15)]	< 50
< 50	< 50	CN[C@H]1CC[C@@H](N(Cc2cc(-c3cnccn3)ccc2OC)C(=O)c2sc3c(F)ccc(F)c3c2Cl)CC1 [344 (R14)]	< 50
< 50	< 50	CN[C@H]1CC[C@@H](N(Cc2cc(-c3ccc(N)nc3)ccc2OC)C(=O)c2sc3c(F)ccc(F)c3c2Cl)CC1 [352 (R18)]	< 50
< 50	< 50	CNC(=O)c1cc(-c2ccc(OC)c(CN(C(=O)c3sc4c(F)ccc(F)c4c3Cl)[C@H]3CC[C@@H](NC)CC3)c2)ccn1 [356 (R16)]	< 50
< 50	< 50	CN[C@H]1CC[C@@H](N(Cc2cc(-c3ccc(C#N)cc3)ccc2OC)C(=O)c2sc3ccccc3c2Cl)CC1 [Compound 301, 3-Chloro-benzo[b]thiophene-2-carboxylic acid (4′-cyano-4-methoxy-biphenyl-3-ylmethyl)-(4-methylamino-cyclohexyl)-amide hydrochloride]	50 to 250
< 50	< 50	CN[C@H]1CC[C@@H](N(Cc2cc(-c3ccc(C(=O)C(F)(F)F)cc3)ccc2OC)C(=O)c2sc3ccccc3c2Cl)CC1 [Compound 302, 3-Chloro-benzo[b]thiophene-2-carboxylic acid [4-methoxy-4′-(2,2,2-trifluoro-acetyl)-biphenyl-3-ylmethyl]-(4-methylamino-cyclohexyl)-amide trifluoroacetate]	< 50
< 50	< 50	CN[C@H]1CC[C@@H](N(Cc2cc(-c3ccc(OC)cc3)ccc2OC)C(=O)c2sc3ccccc3c2Cl)CC1 [Compound 305, 3-Chloro-benzo[b]thiophene-2-carboxylic acid (4,4′-dimethoxy-biphenyl-3-ylmethyl)-(4-methylamino-cyclohexyl)-amide hydrochloride]	250 to 1000
< 50	< 50	CCOc1ccc(-c2ccc(C(=O)C(F)(F)F)cc2)cc1CN(C(=O)c1sc2ccccc2c1Cl)[C@H]1CC[C@@H](NC)CC1 [Compound 310, 3-Chloro-benzo[b]thiophene-2-carboxylic acid [4-ethoxy-4′-(2,2,2-trifluoro-acetyl)-biphenyl-3-ylmethyl]-(4-methylamino-cyclohexyl)-amide hydrochloride]	< 50
< 50	< 50	CCOc1ccc(-c2ccc(C(C)=O)cc2)cc1CN(C(=O)c1sc2ccccc2c1Cl)[C@H]1CC[C@@H](NC)CC1 [Compound 311, 3-Chloro-benzo[b]thiophene-2-carboxylic acid (4′-acetyl-4-ethoxy-biphenyl-3-ylmethyl)-(4-methylamino-cyclohexyl)-amide hydrochloride]	50 to 250
50 to 250	< 50	CN[C@H]1CC[C@@H](N(Cc2cc(-c3ccc(N(C)C=O)cc3)ccc2OC)C(=O)c2sc3ccccc3c2Cl)CC1 [Compound 315, 3-Chloro-benzo[b]thiophene-2-carboxylic acid [4′-(formyl-methyl-amino)-4-methoxy-biphenyl-3-ylmethyl]-(4-methylamino-cyclohexyl)-amide trifluoroacetate]	250 to 1000
< 50	< 50	CN[C@H]1CC[C@@H](N(Cc2cc(-c3ccc(N(C)C(C)=O)cc3)ccc2OC)C(=O)c2sc3ccccc3c2Cl)CC1 [Compound 318, 3-Chloro-benzo[b]thiophene-2-carboxylic acid [4′-(acetyl-methyl-amino)-4-methoxy-biphenyl-3-ylmethyl]-(4-methylamino-cyclohexyl)-amide hydrochloride]	< 50
< 50	250 to 1000	CCOc1ccc(-c2cnc(N)nc2)cc1CN(C(=O)c1sc2ccccc2c1Cl)[C@H]1CC[C@@H](NC)CC1 [Compound 325, 3-Chloro-benzo[b]thiophene-2-carboxylic acid [5-(2-amino-pyrimidin-5-yl)-2-ethoxy-benzyl]-(4-methylamino-cyclohexyl)-amide dihydrochloride]	50 to 250
	< 50	CN[C@H]1CC[C@H](N(Cc2cc(-c3ccc(C)nc3)ccc2OC)C(=O)c2sc3cccc(F)c3c2Cl)CC1 [Compound 406, 3-Chloro-4-fluoro-benzo[b]thiophene-2-carboxylic acid [2-methoxy-5-(6-methyl-pyridin-3-yl)-benzyl]-(4-methylamino-cyclohexyl)-amide dihydrochloride]	50 to 250
	< 50	CN[C@H]1CC[C@@H](N(Cc2cc(-c3cc(C)nc(C)c3)ccc2OC)C(=O)c2sc3ccccc3c2Cl)CC1 [Compound R1, 3-Chloro-benzo[b]thiophene-2-carboxylic acid [5-(2,6-dimethyl-pyridin-4-yl)-2-methoxy-benzyl]-(4-methylamino-cyclohexyl)-amide dihydrochloride]	50 to 250
	50 to 250	CCOc1ccc(-c2ccc(C#N)cc2)cc1CN(C(=O)c1sc2ccccc2c1Cl)[C@H]1CC[C@@H](NC)CC1 [Compound R2, 3-Chloro-benzo[b]thiophene-2-carboxylic acid (4′-cyano-4-ethoxy-biphenyl-3-ylmethyl)-(4-methylamino-cyclohexyl)-amide hydrochloride]	50 to 250
	50 to 250	CCOc1ccc(-c2ccc(C)nc2)cc1CN(C(=O)c1sc2ccccc2c1Cl)[C@H]1CC[C@@H](NC)CC1 [Compound R4, 3-Chloro-benzo[b]thiophene-2-carboxylic acid [2-ethoxy-5-(6-methyl-pyridin-3-yl)-benzyl]-(4-methylamino-cyclohexyl)-amide dihydrochloride]	50 to 250
	< 50	CN[C@H]1CC[C@@H](N(Cc2cc(-c3ccc(C(N)=O)cc3)ccc2OC)C(=O)c2sc3c(F)ccc(F)c3c2Cl)CC1 [Compound R8, 3-Chloro-4,7-difluoro-benzo[b]thiophene-2-carboxylic acid (4′-carbamoyl-4-methoxy-biphenyl-3-ylmethyl)-(4-methylamino-cyclohexyl)-amide hydrochloride]	< 50

SMILES	EC50 (sonic hedgehog pathway [1]) [nM]	EC50 (sonic hedgehog pathway [3]) [nM]	EC50 (sonic hedgehog pathway [2]) [nM]
CNC(=O)c1cc(-c2ccc(OC)c(CN(C(=O)c3sc4c(F)ccc(F)c4c3Cl)[C@H]3CC[C@H](NC)CC3)c2)ccn1 [356 (R21), 4-(3-{[(3-Chloro-4,7-difluoro-benzo[b]thiophene-2-carbonyl)-(4-methylamino-cyclohexyl)-amino]-methyl}-4-methoxy-phenyl)-pyridine-2-carboxylic acid methylamide dihydrochloride]	< 50	< 50	< 50
CN[C@H]1CC[C@@H](N(Cc2cc(-c3cccc(C#N)c3)ccc2OC)C(=O)c2sc3ccccc3c2Cl)CC1 [Compound 304, 3-Chloro-benzo[b]thiophene-2-carboxylic acid (3′-cyano-4-methoxy-biphenyl-3-ylmethyl)-(4-methylamino-cyclohexyl)-amide hydrochloride]	< 50	< 50	< 50
CCOc1ccc(-c2cncnc2)cc1CN(C(=O)c1sc2ccccc2c1Cl)[C@H]1CC[C@@H](NC)CC1 [Compound 326, 3-Chloro-benzo[b]thiophene-2-carboxylic acid (2-ethoxy-5-pyrimidin-5-yl-benzyl)-(4-methylamino-cyclohexyl)-amide dihydrochloride]	< 50	50 to 250	50 to 250
CN[C@H]1CC[C@@H](N(Cc2cc(-c3ccnc(C(=O)O)c3)ccc2OC)C(=O)c2sc3c(F)ccc(F)c3c2Cl)CC1 [Compound R6, 4-(3-{[(3-Chloro-4,7-difluoro-benzo[b]thiophene-2-carbonyl)-(4-methylamino-cyclohexyl)-amino]-methyl}-4-methoxy-phenyl)-pyridine-2-carboxylic acid bis(trifluoroacetate)]		50 to 250	50 to 250
CN[C@H]1CC[C@@H](N(Cc2cc(-c3ccc(S(C)(=O)=O)cc3)ccc2OC)C(=O)c2sc3ccccc3c2Cl)CC1 [Compound R7, 3-Chloro-benzo[b]thiophene-2-carboxylic acid (4′-methanesulfonyl-4-methoxy-biphenyl-3-ylmethyl)-(4-methylamino-cyclohexyl)-amide hydrochloride]		< 50	< 50

Source: US20080182859A1 (Curis, Inc., priority 2006, published 2008)
